The values below come from patent publication US4132737A, “Trifluoromethyl substituted 1-aminoindanes” (Eli Lilly and Company, priority 1978, dated 1979).

One series deals with catechol amine uptake. To be noted: literature statement, no figures; cited from earlier work.
Series [1] concerns the target T1, norephineprine N-methyl transferase (Oryctolagus cuniculus, UniProt G1TT82).
T1 construct: employing NMT from rabbit adrenals; from tissue; host or cells: rabbit adrenals
T1 sequence (G1TT82 1-286): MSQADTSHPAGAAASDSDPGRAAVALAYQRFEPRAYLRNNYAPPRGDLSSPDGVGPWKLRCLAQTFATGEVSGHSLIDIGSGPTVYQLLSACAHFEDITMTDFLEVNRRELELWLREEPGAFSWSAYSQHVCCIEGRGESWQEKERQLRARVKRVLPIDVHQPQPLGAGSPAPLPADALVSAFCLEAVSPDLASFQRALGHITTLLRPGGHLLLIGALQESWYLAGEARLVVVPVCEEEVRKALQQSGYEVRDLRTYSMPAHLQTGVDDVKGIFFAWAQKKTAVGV
In words: in vitro inhibition of N-methyl transferase (NMT) from rabbit adrenals. Format: biochemical. The conditions noted are these: from concentration giving 50 percent inhibition, decreasing concentrations from 1 × 10^-4 M, read-out: pI50 (converted). The source says:
The compounds of this invention, either in the form of the free base, or as a pharmaceutically-acceptable acid addition salt thereof, are enzyme inhibitors. In particular, as previously stated, they are inhibitors of norephineprine N-methyl transferase [PNMT or phenethanolamine N-methyl transferase - - see Axelrod, J. Bio. Chem., 237, 1657 (1962)]. Compounds which inhibit the conversion of norephineprine to ephineprine are capable of lowering a high ephineprine-norephineprine ratio in mammals, a physiological condition frequently associated with essential hypertension. The compounds of this invention are thus capable of ameliorating the ephineprine-norephineprine imbalance in essential hypertension, an important aspect of the treatment of this disease state. The effectiveness of the compounds as N-methyl transferase inhibitors has been measured in vitro employing NMT from rabbit adrenals. By using a series of decreasing concentration of the inhibiting amine, usually starting with 1 × 10^-4 M continuing with 3 × 10^-5 M, 1 × 10^-5 M, etc., it was possible to determine a concentration at which the 50 percent inhibition of NMT was achieved. The negative reciprocal logarhithm (pI50) of this number was also calculated as a useful index. Table 1, which follows, summarizes the information thus obtained; i.e., the determination of enzyme inhibition activity for the compounds of this invention. […]

Structures can show the parent of a compound that is named as a salt.

As for `NC1Cc2ccccc2C1` [2-aminoindane], the “inhibitor of catechol amine uptake, compared with 1-aminoindane” value in the series with catechol amine uptake is “better inhibitor of catechol amine uptake than 1-aminoindane”.
On to `NC1CCc2c1cccc2C(F)(F)F` (centres unmarked) [4-trifluoromethyl-1-aminoindane hydrochloride], for which, in series [1], the IC50 is 0.234 µM. Moreover, the pKa in “pKa determination” stood at 8.58.
The like results for `NC1CCc2ccc(C(F)(F)F)cc21` (centres unmarked) [6-Trifluoromethyl-1-aminoindane hydrochloride] were, in that order, 64.6 µM and 8.52.
